# Measurements: patent US20200131669A1, “CYCLIC PEPTIDE COMPOUND HAVING HIGH MEMBRANE PERMEABILITY, AND LIBRARY CONTAINING SAME” (Chugai Seiyaku Kabushiki Kaisha, priority 2017, published 2020)
# Positions of bridges follow the written chain, without caps; N, C: chain ends. Non-standard residues stand in square brackets, D forms with d. Residues, ends and D or L forms follow the SMILES beside them. ξ: configuration not given here. *: point of attachment. Phe(4-CF3) = N[C@@H](Cc1ccc(C(F)(F)F)cc1)C(=O)O; hhPhe = N[C@@H](CCCc1ccccc1)C(=O)O; Hyp = O=C(O)[C@@H]1C[C@@H](O)CN1; NMeF = CN[C@@H](Cc1ccccc1)C(=O)O; NMeI = CC[C@H](C)[C@H](NC)C(=O)O; NMeD = CN[C@@H](CC(=O)O)C(=O)O; NMeL = CN[C@@H](CC(C)C)C(=O)O; dNMeL = CN[C@H](CC(C)C)C(=O)O; NMeNva = CCC[C@H](NC)C(=O)O; NMeV = CN[C@H](C(=O)O)C(C)C; Pip = O=C(O)[C@@H]1CCCCN1; NMeA = CN[C@@H](C)C(=O)O; Piperidide = C1CCN(*)CC1; dAbu = CC[C@@H](N)C(=O)O; dNMeA = CN[C@H](C)C(=O)O; Bn = c1ccc(C*)cc1; ξS = NC(CO)C(=O)O; Sar = CNCC(=O)O; tBu = CC(C)(C)*
# Assay: Caco-2 membrane permeability, improved method as used in the following Examples (96-well, 20 to 24 h preincubation)
# Type: in vitro ADME
# Settings: human, Caco-2, Caco-2
# Summary of the method: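 Papp (cm/sec) was derived from LC/MS of basal samples collected 180 min after apical dosing in FaSSIF/HBSS pH 6.0 with 1% DMSO, against a basal HBSS pH 7.4 receiver containing 4% BSA. Three-week Caco-2 cultures were first preincubated with compound in DMEM+FaSSIF at 37 °C for 20–24 h.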
row,SMILES,Papp A→B at 180 min [×10⁻⁶ cm/s]
1,CC[C@H](C)[C@H]1C(=O)N[C@H](C(=O)N2CCCCC2)CC(=O)N(C)CC(=O)N(C)[C@@H](Cc2ccccc2)C(=O)N[C@@H](CCCc2ccccc2)C(=O)N(C)[C@@H](CC(C)C)C(=O)N[C@@H]([C@@H](C)O)C(=O)N(C)CC(=O)N(C)[C@@H](Cc2ccccc2)C(=O)N(C)[C@@H](CC(C)C)C(=O)N[C@@H](COC(C)(C)C)C(=O)N1C [pd366] ([Sar][NMeF][hhPhe][NMeL]T[Sar][NMeF][NMeL]S(tBu)[NMeI]D-Piperidide; lactam N-11),1.8
2,CC[C@H](C)[C@@H]1NC(=O)[C@H](Cc2ccccc2)N(C)C(=O)CN(C)C(=O)C[C@@H](C(=O)N2CCCCC2)NC(=O)[C@H](C)N(C)C(=O)[C@H](CCCc2ccccc2)NC(=O)[C@H](CC(C)C)N(C)C(=O)[C@H](Cc2ccccc2)N(C)C(=O)CN(C)C(=O)[C@H]([C@@H](C)O)NC(=O)[C@H](CC(C)C)N(C)C1=O [pd367] ([Sar][NMeF]I[NMeL]T[Sar][NMeF][NMeL][hhPhe][NMeA]D-Piperidide; lactam N-11),1.5
3,CC(C)C[C@H]1C(=O)N[C@@H]([C@@H](C)O)C(=O)N(C)CC(=O)N(C)[C@@H](Cc2ccccc2)C(=O)N(C)[C@@H](CC(C)C)C(=O)N[C@@H](COC(C)(C)C)C(=O)N(C)[C@@H](CC(C)C)C(=O)N[C@H](C(=O)N2CCCCC2)CC(=O)N(C)CC(=O)N(C)[C@@H](Cc2ccccc2)C(=O)N[C@@H](COCc2ccccc2)C(=O)N1C [pd369] ([Sar][NMeF]S(Bn)[NMeL]T[Sar][NMeF][NMeL]S(tBu)[NMeL]D-Piperidide; lactam N-11),3
4,CC[C@H](C)[C@@H]1NC(=O)[C@H](Cc2ccccc2)N(C)C(=O)CN(C)C(=O)C[C@@H](C(=O)N2CCCCC2)NC(=O)[C@H]([C@@H](C)CC)N(C)C(=O)C(COCc2ccccc2)NC(=O)[C@H](CC(C)C)N(C)C(=O)[C@H](Cc2ccccc2)N(C)C(=O)CN(C)C(=O)[C@H]([C@@H](C)O)NC(=O)[C@H](CC(C)C)N(C)C1=O (stereo partly drawn) [pd370] ([Sar][NMeF]I[NMeL]T[Sar][NMeF][NMeL][ξS](Bn)[NMeI]D-Piperidide; lactam N-11),2.5
5,CCO[C@@H]1C[C@H]2C(=O)N(C)[C@@H](CC(C)C)C(=O)N[C@@H]([C@@H](C)CC)C(=O)N(C)[C@@H](CC(C)C)C(=O)N[C@@H](CC(C)C)C(=O)N[C@H](C(=O)N3CCCCC3)CC(=O)N(C)[C@H](C)C(=O)N(C)[C@@H](CC(C)C)C(=O)N[C@@H](CC(C)C)C(=O)N(C)[C@@H](CC(C)C)C(=O)N[C@@H]([C@@H](C)O)C(=O)N2C1 [pd371] ([dNMeA][NMeL]L[NMeL]T[Hyp](Et)[NMeL]I[NMeL]LD-Piperidide; lactam N-11),3.4
6,CCO[C@@H]1C[C@H]2C(=O)N(C)[C@@H](CC(C)C)C(=O)N[C@@H]([C@@H](C)O)C(=O)N(C)[C@@H](Cc3ccccc3)C(=O)N[C@@H](Cc3ccccc3)C(=O)N(C)[C@@H](CC(C)C)C(=O)N[C@H](C(=O)N3CCCCC3)CC(=O)N[C@H](CC(C)C)C(=O)N3CCC[C@H]3C(=O)N[C@@H](COC(C)(C)C)C(=O)N(C)[C@@H](CC(C)C)C(=O)N2C1 [pd372] ([dL]PS(tBu)[NMeL][Hyp](Et)[NMeL]T[NMeF]F[NMeL]D-Piperidide; lactam N-11),1.4
7,CCO[C@@H]1C[C@H]2C(=O)N(C)[C@@H](CC(C)C)C(=O)N[C@@H]([C@@H](C)O)C(=O)N(C)[C@@H](Cc3ccccc3)C(=O)N[C@@H](Cc3ccccc3)C(=O)N(C)[C@@H](CC(C)C)C(=O)N(C)[C@H](C(=O)N3CCCCC3)CC(=O)N[C@@H](C)C(=O)N(C)[C@@H](C(C)C)C(=O)N[C@@H](COC(C)(C)C)C(=O)N(C)[C@@H](CC(C)C)C(=O)N2C1 [pd373] (A[NMeV]S(tBu)[NMeL][Hyp](Et)[NMeL]T[NMeF]F[NMeL][NMeD]-Piperidide; lactam N-11),2
8,CCO[C@@H]1C[C@H]2C(=O)N[C@H](C(=O)N3CCCCC3)CC(=O)N[C@@H](C(C)C)C(=O)NCC(=O)N(C)[C@@H](CC(C)C)C(=O)N(C)[C@@H](CC(C)C)C(=O)N(C)[C@@H](CC(C)C)C(=O)N(C)[C@@H](Cc3ccccc3)C(=O)N[C@@H]([C@@H](C)O)C(=O)N(C)[C@@H](Cc3ccccc3)C(=O)N(C)[C@@H](CC(C)C)C(=O)N2C1 [pd374] (VG[NMeL][NMeL][NMeL][NMeF]T[NMeF][NMeL][Hyp](Et)D-Piperidide; lactam N-11),2.5
9,CCO[C@@H]1C[C@H]2C(=O)N[C@@H](Cc3ccccc3)C(=O)N(C)[C@@H](CC(C)C)C(=O)N[C@H](C(=O)N3CCCCC3)CC(=O)N[C@H](CC)C(=O)N(C)[C@@H](CC(C)C)C(=O)N[C@@H](COC(C)(C)C)C(=O)N(C)[C@@H](CC(C)C)C(=O)N[C@@H](CC(C)C)C(=O)N(C)[C@@H](CC(C)C)C(=O)N[C@@H]([C@@H](C)O)C(=O)N2C1 [pd375] ([dAbu][NMeL]S(tBu)[NMeL]L[NMeL]T[Hyp](Et)F[NMeL]D-Piperidide; lactam N-11),2.9
10,CCO[C@@H]1C[C@H]2C(=O)N(C)[C@@H](C(C)C)C(=O)N[C@@H]([C@@H](C)O)C(=O)N(C)[C@@H](Cc3ccccc3)C(=O)N[C@@H](Cc3ccccc3)C(=O)N(C)[C@@H](CC(C)C)C(=O)N(C)[C@H](C(=O)N3CCCCC3)CC(=O)N3CCC[C@H]3C(=O)N(C)[C@@H](C(C)C)C(=O)N[C@@H](COC(C)(C)C)C(=O)N(C)[C@@H](CC(C)C)C(=O)N2C1 [pd376] (P[NMeV]S(tBu)[NMeL][Hyp](Et)[NMeV]T[NMeF]F[NMeL][NMeD]-Piperidide; lactam N-11),2.4
11,CCO[C@@H]1C[C@H]2C(=O)N(C)[C@@H](CC(C)C)C(=O)N[C@@H]([C@@H](C)O)C(=O)N(C)[C@@H](CC(C)C)C(=O)N(C)[C@@H](C(C)C)C(=O)N[C@@H](Cc3ccc(C(F)(F)F)cc3)C(=O)N3CCCC[C@H]3C(=O)N[C@@H](CC(C)C)C(=O)N[C@H](C(=O)N3CCCCC3)CC(=O)N(C)[C@H](C)C(=O)N(C)[C@@H](CC(C)C)C(=O)N2C1 [pd377] ([dNMeA][NMeL][Hyp](Et)[NMeL]T[NMeL][NMeV][Phe(4-CF3)][Pip]LD-Piperidide; lactam N-11),1.4
12,CCO[C@@H]1C[C@H]2C(=O)N[C@@H](COC(C)(C)C)C(=O)N(C)[C@@H](CC(C)C)C(=O)N(C)[C@@H](CC(C)C)C(=O)N3CCC[C@H]3C(=O)N[C@@H]([C@@H](C)O)C(=O)N(C)[C@@H](Cc3ccccc3)C(=O)N[C@@H](Cc3ccccc3)C(=O)N(C)[C@@H](CC(C)C)C(=O)N[C@H](C(=O)N3CCCCC3)CC(=O)N[C@H](CC(C)C)C(=O)N2C1 [pd378] ([dL][Hyp](Et)S(tBu)[NMeL][NMeL]PT[NMeF]F[NMeL]D-Piperidide; lactam N-11),1.2
13,CCC[C@H]1C(=O)N[C@@H](COC(C)(C)C)C(=O)N(C)[C@@H](CC(C)C)C(=O)N(C)[C@@H](CC(C)C)C(=O)N[C@@H](CC(C)C)C(=O)N[C@@H]([C@@H](C)O)C(=O)N2C[C@H](OCC)C[C@H]2C(=O)N[C@@H](Cc2ccccc2)C(=O)N(C)[C@@H](CC(C)C)C(=O)N[C@H](C(=O)N2CCCCC2)CC(=O)N[C@H](C(C)C)C(=O)N1C [pd380] ([dV][NMeNva]S(tBu)[NMeL][NMeL]LT[Hyp](Et)F[NMeL]D-Piperidide; lactam N-11),3.8
14,CCC[C@H]1C(=O)N[C@@H](CC(C)C)C(=O)N(C)[C@@H](CC(C)C)C(=O)N[C@@H]([C@@H](C)O)C(=O)N2C[C@H](OCC)C[C@H]2C(=O)N(C)[C@@H](CC(C)C)C(=O)N[C@@H]([C@@H](C)CC)C(=O)N(C)[C@@H](CC(C)C)C(=O)N2CCC[C@H]2C(=O)N[C@H](C(=O)N2CCCCC2)CC(=O)N(C)[C@H](CC(C)C)C(=O)N1C [pd381] ([dNMeL][NMeNva]L[NMeL]T[Hyp](Et)[NMeL]I[NMeL]PD-Piperidide; lactam N-11),5.6
15,CCC[C@H]1C(=O)N[C@@H](CC(C)C)C(=O)N(C)[C@@H](CC(C)C)C(=O)N[C@@H]([C@@H](C)O)C(=O)N2CCC[C@H]2C(=O)N(C)[C@@H](CC(C)C)C(=O)N[C@@H]([C@@H](C)CC)C(=O)N(C)[C@@H](CC(C)C)C(=O)N2C[C@H](OCC)C[C@H]2C(=O)N[C@H](C(=O)N2CCCCC2)CC(=O)N(C)[C@H](CC(C)C)C(=O)N1C [pd382] ([dNMeL][NMeNva]L[NMeL]TP[NMeL]I[NMeL][Hyp](Et)D-Piperidide; lactam N-11),4.8
16,CCO[C@@H]1C[C@H]2C(=O)N3CCCC[C@H]3C(=O)N[C@@H](COC(C)(C)C)C(=O)N(C)[C@@H](CC(C)C)C(=O)N[C@@H]([C@@H](C)O)C(=O)N(C)[C@@H](CC(C)C)C(=O)N(C)[C@@H](CC(C)C)C(=O)N(C)[C@@H](CC(C)C)C(=O)N[C@H](C(=O)N3CCCCC3)CC(=O)N[C@H](C(C)C)C(=O)N(C)[C@@H]([C@@H](C)CC)C(=O)N2C1 [pd383] ([dV][NMeI][Hyp](Et)[Pip]S(tBu)[NMeL]T[NMeL][NMeL][NMeL]D-Piperidide; lactam N-11),2.8

# Same assay, conditions: human; Papp, Caco-2 membrane permeability, improved method; read-out: Caco-2
row,SMILES,Papp A→B at 180 min [×10⁻⁶ cm/s]
1,CC(C)C[C@@H]1NC(=O)[C@H](C)N(C)C(=O)C[C@@H](C(=O)N2CCCCC2)NC(=O)[C@H](CC(C)C)N(C)C(=O)CN(C)C(=O)[C@H]([C@@H](C)O)NC(=O)[C@H](C)N(C)C(=O)[C@H](Cc2ccccc2)N(C)C(=O)[C@H](COCc2ccccc2)NC(=O)[C@H](Cc2ccccc2)N(C)C(=O)[C@H](CC(C)C)N(C)C1=O [pd368] ([NMeA]L[NMeL][NMeF]S(Bn)[NMeF][NMeA]T[Sar][NMeL]D-Piperidide; lactam N-11),2
